Consider 6 molecules from patent US8617516B2, “Universal anchor peptide for nanoparticles” (Washington University, priority 2008, dated 2013).

As a reminder, the IC50 is the concentration needed to halve the response being measured. Read a low IC50 as higher potency.

“And” between values parts separate entries of the source, which are not always exact repeats. Identical values can stand only once.

The nature of data set [1]: Surface plasmon resonance (Biacore X 100) binding of peptides on immobilized perfluorocarbon nanoparticles. Conditions: read-out: dissociation constant. The method, then: (§1) In order to evaluate whether linker peptide 1 (LP1) and linker peptide 2 (LP2) still retained high affinity on a lipid monolayer of the nanoparticles, surface plasmon resonance (SPR) studies were performed by using Biacore X 100 (Biacore Inc, Piscataway, N.J.). The binding kinetics and affinity of LP1 and LP2 on two type of nanoparticles were studied. One type was perfluorocarbon nanoparticles (e.g., perfluorooctylbromide, PFOB), the other type was oil-based (safflower core) nanoparticles. PBS (Ca^2+ and Mg^2+ free) was used as the running buffer. Nanoparticles were immobilized on Biacore sensor chip L1 by injecting nanoparticles at a flow rate of 1 μl/min for 30 minutes, followed by a running buffer wash at a flow rate of 100 μl/min for 50 seconds. Peptides in selected concentrations, prepared in running buffer, were then injected at a flow rate of 30 μl/min for 1 minute. At the end of each experiment, the sensor chip surface was regenerated by injection of 3-[(3-cholamidopropyl)dimethylammonio]-1-propanesulfonate (CHAPS) at a flow rate of 100 μl/min for 24 seconds.
The binding kinetics of the resulting VCAM-targeting peptides (i.e., TCP1 and TCP2) on perfluorocarbon nanoparticles were examined using Biacore X 100. PBS (Ca^2+ and Mg^2+ free) was used as the running buffer. Nanoparticles were immobilized on Biacore sensor chip L1 by injecting nanoparticles at a flow rate of 1 μl/min for 30 minutes, followed by a running buffer wash at a flow rate of 100 μl/min for 50 seconds. Targeting peptide prepared at selected concentrations in running buffer was sequentially injected at a flow rate of 30 μl/min for 1 minute. At the end of each experiment, the sensor chip surface was regenerated by injection of 3-[(3-cholamidopropyl)dimethylammonio]-1-propanesulfonate (CHAPS) at a flow rate of 100 μl/min for 24 seconds. FIG. 8 presents selected sensorgrams at several different concentrations of the two VCAM-targeting peptides. The dissociation constant of TCP1 and TCP2 were 0.13 μM and 0.04 μM, respectively.

Data set [2] in a line: Dynamic light scattering size and zeta potential of peptide-loaded PFOB/PFC nanoparticles. The class given is physicochemical. Particulars: for zeta potential: PFOB nanoparticles after incorporating the peptide (plain nanoparticles −17.62 mV); for average hydrodynamic diameter: PFOB nanoparticles with versus without inserted peptide. The method, then: (§2) The size distributions of the nanoparticles with or without the linker peptide were analyzed by dynamic light scattering (Brookhaven Instruments Corp., Holtsville, N.Y.). Zeta potential (ζ) values were determined with a Brookhaven Instruments PALS Zeta Potential Analyzer (Brookhaven Instruments Corp., Holtsville, N.Y.). Data were acquired in the phase-analysis light scattering (PALS) mode following solution equilibration at 25° C. […] This change further confirms the insertion of the linker peptide 1 into the PFOB nanoparticles. Furthermore, the structural integrity of linker peptide 1 inserted PFOB nanoparticles was confirmed by transmission electron microscopy.
The size distributions of the nanoparticles with or without cargo incorporated were analyzed by dynamic light scattering (Brookhaven Instruments Corp., Holtsville, N.Y.). The size distribution was plotted by particle number. Zeta potential (ζ) values were determined with a Brookhaven Instruments PALS Zeta Potential Analyzer (Brookhaven Instruments Corp., Holtsville, N.Y.). Data were acquired in the phase-analysis light scattering (PALS) mode following solution equilibration at 25° C.

The test system of data set [3] is 2F2B mouse endothelial cells. The experiment in a line: XTT cell viability assay (cytotoxicity of peptides). Particulars: 2F2B cells; for IC50: 3 hours of treatment at 37° C., XTT. The format is cell-based. The method, then:
For each peptide, cytotoxicity was assessed in 2F2B mouse endothelial cells by the XTT cell viability assay (Biotium, Hayward, Calif.). Cells were seeded in 96-well plates at 10,000 cells/well 24 hours before treatment with melittin and mutated melittins at selected concentrations. After 3 hours of treatment at 37° C., 25 μl of activated XTT solution was added to each well and incubated at 37° C. for 5 hours. After 5 hours of incubation, plates were gently shaken to achieve even dye distribution. The absorbances of the samples were measured by a microplate reader (Biorad, Model 550, Hercules, Calif.) at a wavelength of 450 nm. Background was subtracted and the results were normalized to untreated control cells.
Background: Formazan colour is commonly taken as a measure of viable cells.

A short description of data set [4]: Surface plasmon resonance (Biacore X 100) binding of peptides on immobilized oil-based nanoparticles. Conditions: sensor chip L1, read-out: dissociation constant. The method, then:
as §1

Data set [5] can be described thus: Dissociation of loaded peptide from PFOB nanoparticles (tryptophan fluorescence of supernatant). Conditions: stored at 4° C., up to 70 hours after loading. The class given is physicochemical. The method, then:
The dissociation of the peptide from linker peptide 1-loaded PFOB nanoparticles is depicted in FIG. 4. After being loaded with the linker peptide 1, the loaded PFOB nanoparticles were stored at 4° C. for 30 minutes, 1 hour, 2 hours, 4 hours, 22 hours, 46 hours, and 70 hours. The loaded nanoparticles were centrifuged at 100 g for 10 minutes, and the dissociated linker peptide 1 was measured by using tryptophan fluorescence after excitation at 280 nm in a fluorescent spectrofluorometer (Varian Inc, Palo Alto, Calif.).
FIG. 9 presents the dissociation of TCP1 or TCP2 from loaded PFOB nanoparticles as a function of time after loading. After loaded with TCP1 or TCP2, the PFOB nanoparticles were stored at 4° C. for 30 minutes, 1 hour, 2 hours, 4 hours, 22 hours, 46 hours, and 70 hours. The stored nanoparticles were then centrifuged at 100 g for 10 minutes and dissociated TCP1 or TCP2 was measured using tryptophan fluorescence after excitation at 280 nm in a fluorescent spectrofluorometer (Varian Inc, Palo Alto, Calif.).

Data set [6] is described as follows: Dynamic light scattering size and zeta potential of peptide-loaded liposomes. The class given is physicochemical. The method, then: as §2
The interactions between linker peptide 1 and liposomes are depicted in FIG. 6. […] This change further confirms that the linker peptide 1 inserted into the liposomes.

Where [7] appears, read: on perfluorocarbon nanoparticles, sensor chip L1.

Take VHPKQHRggVLTTGLPALISWIKR [TCP2]: the Kd in data set [1] (VCAM-targeting peptides on perfluorocarbon nanoparticles) was 0.04 µM. Moreover, in data set [2], the zeta potential is on record as 12.43 mV and the average hydrodynamic diameter result is “not affected”.
In turn, `CC[C@H](C)[C@H](NC(=O)CNC(C)=O)C(=O)NCC(=O)N[C@@H](C)C(=O)N[C@H](C(=O)N[C@@H](CC(C)C)C(=O)N[C@@H](CCCCN)C(=O)N[C@H](C(=O)N[C@@H](CC(C)C)C(=O)N[C@H](C(=O)N[C@H](C(=O)NCC(=O)N[C@@H](CC(C)C)C(=O)N1CCC[C@H]1C(=O)N[C@@H](C)C(=O)N[C@@H](CC(C)C)C(=O)N[C@H](C(=O)N[C@@H](CO)C(=O)N[C@@H](Cc1c[nH]c2ccccc12)C(=O)N[C@H](C(=O)N[C@@H](CCCCN)C(=O)N[C@@H](CCCNC(=N)N)C(N)=O)[C@@H](C)CC)[C@@H](C)CC)[C@@H](C)O)[C@@H](C)O)C(C)C)C(C)C` [Peptide P5] came in with an IC50 in data set [3] of 6.41 ± 0.64 µM.
With `CC[C@H](C)[C@H](NC(=O)CNC(C)=O)C(=O)NCC(=O)N[C@@H](C)C(=O)N[C@H](C(=O)N[C@@H](CC(C)C)C(=O)N[C@@H](CCCCN)C(=O)N[C@H](C(=O)N[C@@H](CC(C)C)C(=O)N[C@H](C(=O)N[C@H](C(=O)NCC(=O)N[C@@H](CC(C)C)C(=O)N[C@@H](C)C(=O)N[C@@H](C)C(=O)N[C@@H](CC(C)C)C(=O)N[C@H](C(=O)N[C@@H](CO)C(=O)N[C@@H](Cc1c[nH]c2ccccc12)C(=O)N[C@H](C(=O)N[C@@H](CCCCN)C(=O)N[C@@H](CCCNC(=N)N)C(=O)N[C@@H](CCCCN)C(=O)N[C@@H](CCCNC(=N)N)C(=O)N[C@@H](CCC(N)=O)C(=O)N[C@@H](CCC(N)=O)C(N)=O)[C@@H](C)CC)[C@@H](C)CC)[C@@H](C)O)[C@@H](C)O)C(C)C)C(C)C` [Peptide P2], the Kd in data set [1] (setting [7]) is 0.00548 µM. Also, in data set [4], the Kd is 0.00064 µM. Besides, in data set [3], the “cytotoxicity among the modified peptides (FIG. 2)” value is given as “least cytotoxicity” and the IC50 stood at 26.6 ± 0.56 µM.
`CC[C@H](C)[C@H](NC(=O)CNC(C)=O)C(=O)NCC(=O)N[C@@H](C)C(=O)N[C@@H](Cc1c[nH]c2ccccc12)C(=O)N[C@@H](CC(C)C)C(=O)N[C@@H](CCCCN)C(=O)N[C@H](C(=O)N[C@@H](CC(C)C)C(=O)N[C@H](C(=O)N[C@H](C(=O)NCC(=O)N[C@@H](CC(C)C)C(=O)N1CCC[C@H]1C(=O)N[C@@H](C)C(=O)N[C@@H](CC(C)C)C(=O)N[C@H](C(=O)N[C@@H](CO)C(=O)N[C@@H](Cc1c[nH]c2ccccc12)C(=O)N[C@H](C(=O)N[C@@H](CCCCN)C(=O)N[C@@H](CCCNC(=N)N)C(=O)N[C@@H](CCCCN)C(=O)N[C@@H](CCCNC(=N)N)C(=O)N[C@@H](CCC(N)=O)C(=O)N[C@@H](CCC(N)=O)C(N)=O)[C@@H](C)CC)[C@@H](C)CC)[C@@H](C)O)[C@@H](C)O)C(C)C` [Peptide P1] yielded an IC50 in data set [3] of 0.75 ± 0.04 µM.
Take `CC[C@H](C)[C@H](NC(=O)[C@H](CC(C)C)NC(=O)[C@H](C)NC(=O)[C@@H]1CCCN1C(=O)[C@H](CC(C)C)NC(=O)CNC(=O)[C@@H](NC(=O)[C@@H](NC(=O)[C@H](CC(C)C)NC(=O)[C@@H](NC(C)=O)C(C)C)[C@@H](C)O)[C@@H](C)O)C(=O)N[C@@H](CO)C(=O)N[C@@H](Cc1c[nH]c2ccccc12)C(=O)N[C@H](C(=O)N[C@@H](CCCCN)C(=O)N[C@@H](CCCNC(=N)N)C(=O)N[C@@H](CCCCN)C(=O)N[C@@H](CCCNC(=N)N)C(=O)N[C@@H](CCC(N)=O)C(=O)N[C@@H](CCC(N)=O)C(N)=O)[C@@H](C)CC` [Peptide P4, VLTTGLPALISWIKRKRQQ]: the Kd in data set [1] (setting [7]) stood at 0.225 µM; in data set [4], 0.0229 µM. Also, the “loaded peptide dissociated from the PFOB nanoparticles” value in data set [5] is less than 10%. Besides, the zeta potential in data set [6] (liposomes after incorporating the peptide (plain liposomes −36.73 mV)) is on record as −29.843 mV; in data set [2], “+23.33 mV”. Moreover, the average hydrodynamic diameter result in data set [6] (liposomes with versus without inserted peptide) and in data set [2] was “not affected” throughout. In addition, the “cytotoxicity among the modified peptides (FIG. 2)” value in data set [3] was “least cytotoxicity”. Further, the half-maximal inhibitory concentration (IC50) in data set [3] is 114 µM and 115 µM. Moreover, the “decrease in cytotoxicity compared to MMLT” value in data set [3] (ratio of cytotoxicity index (IC50)) is recorded as approximately 50 fold. Further, in data set [3] (up to a concentration of 90 μM), the cell toxicity entry is on record as “essentially no cell toxicity”.
`CC[C@H](C)[C@H](NC(=O)[C@H](CC(C)C)NC(=O)[C@H](C)NC(=O)[C@@H]1CCCN1C(=O)[C@H](CC(C)C)NC(=O)CNC(=O)[C@@H](NC(=O)[C@@H](NC(=O)[C@H](CC(C)C)NC(=O)[C@@H](NC(=O)[C@H](CCCCN)NC(=O)[C@H](CC(C)C)NC(=O)[C@@H](NC(C)=O)C(C)C)C(C)C)[C@@H](C)O)[C@@H](C)O)C(=O)N[C@@H](CO)C(=O)N[C@@H](Cc1c[nH]c2ccccc12)C(=O)N[C@H](C(=O)N[C@@H](CCCCN)C(=O)N[C@@H](CCCNC(=N)N)C(=O)N[C@@H](CCCCN)C(=O)N[C@@H](CCCNC(=N)N)C(=O)N[C@@H](CCC(N)=O)C(=O)N[C@@H](CCC(N)=O)C(N)=O)[C@@H](C)CC` [Peptide P3] gave an IC50 in data set [3] of 14.4 ± 0.92 µM.
